Common to all, as to experiment: NCI tumour cell line growth inhibition, 48 h
The subject of assay [1] is DU-145 prostate.
In assay [2] the test system is HCT-15 colon.
Assay [3] has as its system HOP-92 NSCLC.
Assay [4] concerns KM12 colon.
Assay [5] has as its system MCF7 breast.
Assay [6] concerns MDA-MB-231 breast.
In assay [7] the test system is MDA-N.
In assay [8] the test system is NCI-H23 lung.
Assay [9] deals with OVCAR-3 ovarian.
The test system of assay [10] is OVCAR-8 ovarian.
Assay [11] concerns SF-268 CNS.
Assay [12] deals with SK-MEL-5 melanoma.
The test system of assay [13] is SK-OV-3 ovarian.
Assay [14] deals with SR leukemia.
Assay [15] has as its system U251 CNS.
Assay [16] has as its system UACC-62 melanoma.
Assay [17] relates to IGROV1 ovarian.
Assay [18] relates to NCI-H226 lung.
Assay [19] relates to SK-MEL-28 melanoma.

The structures appear in SMILES notation.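 Tested at 5 concentrations; 48 h exposure; 96-well plates; endpoints linearly interpolated, else capped at highest concentration. At the TGI there is no net growth.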

On to `C=C1[C@H](OCC(C)C)[C@@H](OCC(C)C)[C@@H](O)C(C)(C)/C=C/[C@H](C)C(=O)[C@@]2(O)C[C@H](C)[C@H](O)[C@@H]2[C@H]1OCC(C)C`, for which the TGI in [1], in [2], in [3], in [4], in assay [5] and in [6] was greater than 7.5 µM in each case. For the same compound, the TGI in [7], in [8], in [9], in assay [10], in assay [11] and in [12] was greater than 7.5 µM throughout. Also, the TGI in assay [13], in [14], in assay [15] and in assay [16] was greater than 7.5 µM throughout.

As for `CNC(=O)C(C)NC(=O)C(Cc1ccccc1)NC(=O)OC(C)(C)C` (stereo not drawn), the TGI in assay [1], in assay [2], in assay [3], in assay [17], in [4] and in assay [5] was greater than 100 µM throughout. The TGI in assay [6], in assay [7], in assay [18], in assay [8], in [9] and in [10] was greater than 100 µM in each case. The TGI in assay [11], in [19], in assay [12], in [13], in assay [14] and in assay [15] was greater than 100 µM throughout. The same compound displayed a TGI in [16] greater than 100 µM.

As to `COC(=O)CC1CN(C(=O)OCc2ccccc2)C(C)(C)O1` (stereo not drawn), the TGI in [1], in assay [2], in assay [3], in [17], in [4] and in [5] was greater than 100 µM in each case. The TGI in assay [6] was greater than 100 µM; in assay [7] it was greater than 100 µM; in assay [18] it was 22.7 µM; in assay [8], greater than 100 µM; in assay [9] it was greater than 100 µM; in assay [10], greater than 100 µM. Also, the TGI in assay [19], in [12], in assay [13], in assay [14], in assay [15] and in assay [16] was greater than 100 µM in each case.

Take `COC(=O)c1cccc(C)c1C1CN=NC12Cc1c(ccc(C)c1C)C2=O` (stereo not drawn): the TGI in [1], in assay [2], in assay [3], in [17], in [4] and in [5] was greater than 100 µM each time. For the same compound, the TGI in assay [6], in assay [7], in assay [18], in assay [8], in assay [9] and in assay [10] was greater than 100 µM throughout. For the same compound, the TGI in assay [11] is greater than 100 µM; in assay [19], greater than 100 µM; in [12] it was 17.7 µM; in assay [14] it was greater than 100 µM; in assay [15], greater than 100 µM.

In the case of `c1ccc2c(c1)n1c(N3CCOCC3)[n+]3ccccc3c1c1c3cccc[n+]3c(N3CCOCC3)n21`, the TGI in assay [1], in assay [2], in [3], in assay [17], in assay [4] and in assay [5] was greater than 100 µM throughout. Further, the TGI in [6], in assay [7], in assay [18], in assay [8], in assay [9] and in assay [10] was greater than 100 µM in each case. The TGI in [11] was 68.2 µM; in [19], greater than 100 µM; in assay [12], greater than 100 µM; in assay [14], greater than 100 µM; in assay [15] it was greater than 100 µM; in assay [16], greater than 100 µM.

For the compound `Cc1nc2c(n1CCCl)C(=O)c1ccccc1C2=O`, the TGI in [1] is greater than 100 µM; in assay [2], 40.9 µM; in assay [3] it was 72.1 µM; in [17], 41.6 µM; in assay [4], greater than 100 µM; in [5] it was 41.6 µM. Moreover, the TGI in assay [6] was 56.5 µM; in [7], 32.6 µM; in [18] it was 50.1 µM; in assay [8] it was 92.2 µM; in [9] it was greater than 100 µM; in assay [10], 42.6 µM. Further, the TGI in [11] was greater than 100 µM; in assay [19], greater than 100 µM; in assay [13], 79.6 µM; in assay [14], greater than 100 µM; in [15], 62.4 µM; in assay [16] it was 44.2 µM.

Take `COC(=O)C1=C(C(=O)OC)C(C(=O)c2ccccc2)N2N=C(c3ccc(Cl)cc3)C=CC12` (stereo not drawn): the TGI in assay [1], in [2], in assay [3], in [4], in assay [5] and in [6] was greater than 100 µM throughout. For the same compound, the TGI in assay [7] is greater than 100 µM; in assay [18] it was 66.1 µM; in [8] it was greater than 100 µM; in assay [9] it was greater than 100 µM; in [10] it was greater than 100 µM; in assay [11], greater than 100 µM. Further, the TGI in [19], in assay [12], in assay [13], in assay [14], in assay [15] and in assay [16] was greater than 100 µM throughout.

Take `Cc1ccc(-c2cnc(NC3OC(COC(=O)c4ccccc4)C(OC(=O)c4ccccc4)C(OC(=O)c4ccccc4)C3OC(=O)c3ccccc3)s2)cc1` (stereo not drawn): the TGI in assay [1], in assay [2], in [3], in assay [17], in assay [5] and in assay [6] was greater than 100 µM in each case. The TGI in assay [7], in [18], in [8], in [9], in assay [10] and in [11] was greater than 100 µM each time. Also, the TGI in assay [19], in assay [12], in assay [13], in [14], in [15] and in assay [16] was greater than 100 µM throughout.

On to `CCCN(CCC)C(=S)N/N=C/c1cccc(C)n1`, for which the TGI in assay [1] is greater than 100 µM; in [2], 24.5 µM; in [3], greater than 100 µM; in assay [17] it was 1.56 µM; in [4] it was 12.4 µM; in [5], 0.67 µM. The TGI in assay [6] is 2.03 µM; in assay [7], 22.6 µM; in [18], 0.837 µM; in assay [8], greater than 100 µM; in assay [10] it was 0.729 µM; in assay [11], 15.1 µM. Besides, the TGI was 91.3 µM in assay [19]; 0.654 µM in [12]; 15.7 µM in assay [13]; 0.376 µM in [14]; greater than 100 µM in assay [15]; 9.45 µM in assay [16].

As to `CC1=C/C(=N\N(C)C)C(C(O)(C(F)(F)F)C(F)(F)F)C(C)(C)C1` (stereo not drawn), the TGI was greater than 100 µM in assay [1]; greater than 100 µM in [2]; 81 µM in assay [3]; greater than 100 µM in [17]; greater than 100 µM in [4]; greater than 100 µM in assay [5]. Besides, the TGI was greater than 100 µM in [6]; greater than 100 µM in assay [7]; greater than 100 µM in [18]; greater than 100 µM in assay [8]; 87.8 µM in assay [9]; greater than 100 µM in assay [10]. Moreover, the TGI in [11], in [19], in assay [12], in assay [14], in [15] and in assay [16] was greater than 100 µM in each case.

For `CCOC(=O)c1c(-c2ccc(Cl)cc2)c(C#N)c(=S)n(C2OC(CO)C(O)C(O)C2O)c1-c1ccccc1` (stereo not drawn), the TGI is greater than 100 µM in assay [1]; 85.6 µM in [2]; 42.6 µM in assay [3]; greater than 100 µM in [17]; greater than 100 µM in assay [4]; 50.5 µM in assay [5]. The TGI in [6] turned out to be 75.9 µM; in assay [7], 49.9 µM; in [8] it was 72.7 µM; in assay [9], 37.9 µM; in assay [11], 55.9 µM; in assay [19], 38.7 µM. Moreover, the TGI in [12] was 29.3 µM; in assay [13] it was 96.2 µM; in [14] it was greater than 100 µM; in assay [15], 32 µM; in assay [16] it was 38.2 µM.

Turning to `NC(=O)CC1(O)C=CC(=O)C=C1`, the TGI in assay [1], in assay [2], in [3], in [17], in assay [4] and in [5] was greater than 100 µM each time. The TGI in assay [6], in assay [7], in assay [18], in assay [8], in assay [9] and in assay [10] was greater than 100 µM in each case. Further, the TGI in assay [19], in assay [12], in assay [13], in assay [14], in assay [15] and in [16] was greater than 100 µM in each case.

(Values after PubChem BioAssay (NCI).)
